Where two headings read alike, the source gives them in different places.
Tests used:
[1] = target: 229E mPRO (Human coronavirus 229E (HCoV-229E), UniProt P0C6X1); assay: 229E mPRO enzymatic assay; format: biochemical, Human Coronavirus (HCov) 229E
Experimental: Compounds were assayed using standard methods to assess compound activity and IC50. […] The assay buffer contained 20 mM of Tris-HCl (pH 7.3), 100 mM of NaCl, 1 mM of EDTA, 5 mM of TCEP and 0.1% BSA.
The compounds were added to an assay plate.
IC50 values of compounds were calculated with the GraphPad Prism software using the nonlinear regression model of log(inhibitor) vs. response—Variable slope (four parameters). The inhibition activity was calculated using the formula below, IC50 values was calculated using the Inhibition % data. Inhibition %=[(Sample−Average ZPE)/(Average HPE−Average ZPE)]*100%^# • ^#HEP: Hundred percent effect controls. […] Containing enzyme+substrate, no compound. • Sample: Compound activity testing wells. Containing compound+enzyme+substrate. • BG: Compound background control wells. Containing compound+substrate, no enzyme.

[2] = tested on: HCoV 229E; assay: HCoV 229E cytopathic effect (CPE) assay; format: cell-based, Human Coronavirus (HCov) 229E; details: unidentified human coronavirus, CellTiter Glo, read-out: 229 ECPE EC50
Experimental: Compounds were assayed using standard methods against multiple coronaviral strains, including HCoV 229E and OC43 strains. The antiviral activity of compounds was calculated based on the protection of the virus-induced CPE at each concentration normalized by the virus control.
Cytopathic effect (CPE) was measured by CellTiter Glo following the manufacturer's manual. The antiviral activity of compounds was calculated based on the protection of the virus-induced CPE at each concentration normalized by the virus control.

Chain of 229E mPRO (P0C6X1 2966-3267 limits assumed): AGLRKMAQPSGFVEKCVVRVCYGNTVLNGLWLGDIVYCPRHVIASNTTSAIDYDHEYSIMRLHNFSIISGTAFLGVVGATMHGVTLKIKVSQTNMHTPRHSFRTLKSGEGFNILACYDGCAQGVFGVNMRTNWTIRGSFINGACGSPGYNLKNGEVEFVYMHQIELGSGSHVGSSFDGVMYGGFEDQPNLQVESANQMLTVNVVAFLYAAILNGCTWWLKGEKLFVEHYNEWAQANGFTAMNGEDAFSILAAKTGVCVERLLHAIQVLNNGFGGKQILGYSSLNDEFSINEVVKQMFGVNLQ

Compound `COc1cccc2[nH]c(C(=O)N3C[C@H](C4CCCCC4)C[C@H]3C(=O)N[C@H](C#N)C[C@@H]3CCNC3=O)cc12` [Compound 167, (2S,4S)—N—((S)-1-cyano-2-((S)-2-oxopyrrolidin-3-yl)ethyl)-4-cyclohexyl-1-(4-methoxy-1H-indole-2-carbonyl)pyrrolidine-2-carboxamide] has an IC50 ([1]; read-out: 229E mPRO IC50) of 2 to 10 µM.
In the case of `N#C[C@H](C[C@@H]1CCCNC1=O)NC(=O)[C@H](CC1CC1)NC(=O)c1cc2cccc(Cl)c2[nH]1` (single isomer, unassigned) [639 (Isomer 1)], the IC50 ([1]; read-out: 229E mPRO IC50) is reported as < 22 µM and the EC50 [2] is reported as < 22 µM.
For `COc1cccc2[nH]c(C(=O)N3CC(C45CC(C4)C5)C[C@H]3C(=O)N[C@H](C#N)C[C@@H]3CCNC3=O)cc12` (single isomer, unassigned) [385 (Isomer 2)], the IC50 ([1]; read-out: 229E mPRO IC50) was < 22 µM.
For `COc1cccc2[nH]c(C(=O)N[C@H](C(=O)N[C@H](C#N)C[C@@H]3CCNC3=O)[C@@H]3Cc4ccccc4O3)cc12` [Compound 147], the IC50 ([1]; read-out: 229E mPRO IC50) was > 30 µM.
In the case of `COc1cccc2[nH]c(C(=O)N[C@@H](CC3CCC3)C(=O)N[C@H](C#N)C[C@@H]3CCNC3=O)cc12` [Compound 577], the IC50 ([1]; read-out: 229E mPRO IC50) is reported as < 22 µM and the EC50 [2] is reported as < 22 µM.
`COc1cccc2[nH]c(C(=O)N[C@@H](CC(C)C)C(=O)N[C@@H](C[C@@H]3CCNC3=O)C(C#N)N3CCCC3)cc12` (single isomer, unassigned) [331 (Isomer 2)] was tested, and the IC50 ([1]; read-out: 229E mPRO IC50) was < 22 µM.
In the case of `COc1cccc2[nH]c(C(=O)N3C[C@H](OC)C[C@H]3C(=O)N[C@H](C#N)C[C@@H]3CCNC3=O)cc12` [Compound 407], the IC50 ([1]; read-out: 229E mPRO IC50) is reported as < 22 µM and the EC50 [2] is reported as < 22 µM.
With `N#C[C@H](C[C@@H]1CCNC1=O)NC(=O)[C@@H]1CS[C@H]2CC[C@H](NC(=O)OCC3c4ccccc4-c4ccccc43)C(=O)N21` [Compound 477] the IC50 ([1]; read-out: 229E mPRO IC50) was > 30 µM.
With `COc1cccc2[nH]c(C(=O)N3CC4(CCOCC4)CC3C(=O)N[C@H](C#N)C[C@@H]3CCNC3=O)cc12` (stereo partly shown) [Compound 387] the IC50 ([1]; read-out: 229E mPRO IC50) was > 30 µM.
In the case of `COc1cccc2[nH]c(C(=O)N[C@@H](CC(C)C)C(=O)N[C@H](C#N)Cc3n[nH]c4ccccc34)cc12` (mixture of isomers) [Compound 245], the IC50 ([1]; read-out: 229E mPRO IC50) is reported as > 30 µM.
With `COc1cccc2[nH]c(C(=O)N3C[C@H](OC(C)(C)C)C[C@H]3C(=O)N[C@H](C#N)C[C@@H]3CCNC3=O)cc12` [Compound 165, (2S,4R)-4-(tert-butoxy)-N—((S)-1-cyano-2-((S)-2-oxopyrrolidin-3-yl)ethyl)-1-(4-methoxy-1H-indole-2-carbonyl)pyrrolidine-2-carboxamide] the IC50 ([1]; read-out: 229E mPRO IC50) was > 30 µM.
`CC(C)(C)OC(=O)N1CCCCC12CCN([C@@H](CC1CC1)C(=O)N[C@H](C#N)C[C@@H]1CCNC1=O)C2=O` (single isomer, unassigned) [473 (Isomer 1)] was tested, and the IC50 ([1]; read-out: 229E mPRO IC50) was > 30 µM.
For `CCCNC(=O)OC(C#N)[C@H](C[C@@H]1CCNC1=O)NC(=O)[C@H](CC(C)C)NC(=O)c1cc2c(OC)cccc2[nH]1` (stereo partly shown) [Compound 581], the IC50 ([1]; read-out: 229E mPRO IC50) was > 30 µM.
With `N#C[C@H](C[C@@H]1CCNC1=O)NC(=O)[C@H](CC1CC1)NC(=O)c1cc2cc(Cl)ccc2[nH]1` [Compound 519] the IC50 ([1]; read-out: 229E mPRO IC50) was < 22 µM and the EC50 [2] was < 22 µM.
`CCCN1C(=N)C([C@H](C[C@@H]2CCNC2=O)NC(=O)[C@H](CC(C)C)NC(=O)c2cc3c(OC)cccc3[nH]2)OC1=O` (stereo partly shown) [Compound 355] was tested, and the IC50 ([1]; read-out: 229E mPRO IC50) was 2 to 10 µM and the EC50 [2] was > 30 µM.
With `CN1CCCC[C@]12CCN([C@@H](CC1CC1)C(=O)N[C@H](C#N)C[C@@H]1CCNC1=O)C2=O` [Compound 273C] the IC50 ([1]; read-out: 229E mPRO IC50) was 2 to 10 µM.
For `CC(C)C[C@H](NC(=O)c1cc2c(OC(F)F)cccc2[nH]1)C(=O)N[C@H](C#N)C[C@@H]1CCNC1=O` [Compound 509], the IC50 ([1]; read-out: 229E mPRO IC50) was < 22 µM and the EC50 [2] was < 22 µM.
In the case of `COc1cccc2[nH]c(C(=O)N[C@@H](CC(C)C)C(=O)N[C@@H](C[C@@H]3CCNC3=O)C(C#N)OC(=O)NC(C)C)cc12` (stereo partly shown) [Compound 583], the IC50 ([1]; read-out: 229E mPRO IC50) is reported as > 30 µM.
`CCCOc1cccc2[nH]c(C(=O)N[C@@H](CC(C)C)C(=O)N[C@H](C#N)C[C@@H]3CCNC3=O)cc12` [Compound 379] was tested, and the IC50 ([1]; read-out: 229E mPRO IC50) was < 22 µM and the EC50 [2] was < 22 µM.
`CC(C)C[C@H](NC(=O)/C=C/c1ccc(Cl)cc1F)C(=O)N[C@H](C#N)C[C@@H]1CCNC1=O` [Compound 598] was tested, and the IC50 ([1]; read-out: 229E mPRO IC50) was 2 to 10 µM and the EC50 [2] was < 22 µM.
For `COc1cccc2[nH]c(C(=O)N[C@@H](CC(C)C)C(=O)N[C@@H](C[C@@H]3CCNC3=O)C3OC(=O)N(C(C)C)C3=N)cc12` (stereo partly shown) [Compound 357], the IC50 ([1]; read-out: 229E mPRO IC50) was > 30 µM.
In the case of `COc1cccc2[nH]c(C(=O)N[C@@H](CC(C)C)C(=O)N[C@@H](C[C@@H]3CCNC3=O)C(C#N)N3CCCC3)cc12` (single isomer, unassigned) [331 (Isomer 1)], the IC50 ([1]; read-out: 229E mPRO IC50) is reported as < 22 µM and the EC50 [2] is reported as < 22 µM.
`N#C[C@H](C[C@@H]1CCNC1=O)NC(=O)[C@H](CC1CC1)N1CCC2(CCCN2)C1=O` (stereo partly shown) [Compound 471] gave an IC50 ([1]; read-out: 229E mPRO IC50) of 10 to 30 µM.
In the case of `N#C[C@H](C[C@@H]1CCNC1=O)NC(=O)[C@H](CC1CC1)NC(=O)c1cc2cccc(Cl)c2[nH]1` [Compound 531, 7-chloro-N-[(1S)-2-[[(1S)-1-cyano-2-[(3S)-2-oxopyrrolidin-3-yl]ethyl]amino]-1-(cyclopropylmethyl)-2-oxo-ethyl]-1H-indole-2-carboxamide], the IC50 ([1]; read-out: 229E mPRO IC50) is reported as < 22 µM and the EC50 [2] is reported as < 22 µM.
With `CCO[C@@H]1C[C@@H](C(=O)N[C@H](C#N)C[C@@H]2CCNC2=O)N(C(=O)c2cc3c(OC)cccc3[nH]2)C1` [Compound 535] the IC50 ([1]; read-out: 229E mPRO IC50) was > 30 µM.
Work on `COc1cccc2[nH]c(C(=O)N3CCC4(CC4)C[C@H]3C(=O)N[C@H](C#N)C[C@@H]3CCNC3=O)cc12` [Compound 183, (S)—N—((S)-1-cyano-2-((S)-2-oxopyrrolidin-3-yl)ethyl)-6-(4-methoxy-1H-indole-2-carbonyl)-6-azaspiro[2.5]octane-5-carboxamide] yielded an IC50 ([1]; read-out: 229E mPRO IC50) of 2 to 10 µM.
In the case of `COc1cccc2[nH]c(C(=O)N[C@@H](Cc3cccc(Cl)c3)C(=O)N[C@H](C#N)C[C@@H]3CCNC3=O)cc12` [Compound 153], the IC50 ([1]; read-out: 229E mPRO IC50) is reported as 10 to 30 µM.
With `N#C[C@H](C[C@@H]1CCNC1=O)NC(=O)[C@@H]1CCCNN1C(=O)/C=C/c1ccc(Cl)cc1F` [Compound 213, (S)-2-((E)-3-(4-chloro-2-fluorophenyl)acryloyl)-N—((S)-1-cyano-2-((S)-2-oxopyrrolidin-3-yl)ethyl)hexahydropyridazine-3-carboxamide] the IC50 ([1]; read-out: 229E mPRO IC50) was > 30 µM.
Compound `N#C[C@H](C[C@@H]1CCNC1=O)NC(=O)[C@@H]1C[C@@H](c2ccccc2)CN1C(=O)/C=C/c1ccc(Cl)cc1F` [Compound 209, (2S,4S)-1-((E)-3-(4-chloro-2-fluorophenyl)acryloyl)-N—((S)-1-cyano-2-((S)-2-oxopyrrolidin-3-yl)ethyl)-4-phenylpyrrolidine-2-carboxamide] has an IC50 ([1]; read-out: 229E mPRO IC50) of 10 to 30 µM.
With `CC(C)C[C@H](NC(=O)CC(C)(O)c1ccc(Cl)cc1)C(=O)N[C@H](C#N)C[C@@H]1CCNC1=O` (single isomer, unassigned) [365 (Isomer 1)] the IC50 ([1]; 229E mPRO IC50 (μM)) was 2 to 10 µM.
`COc1cccc2[nH]c(C(=O)N[C@@H](CC(C)C)C(=O)N[C@@H](C[C@@H]3CCNC3=O)C3OC(=O)N(c4ccccc4)C3=N)cc12` (stereo partly shown) [Compound 359] was tested, and the IC50 ([1]; read-out: 229E mPRO IC50) was 10 to 30 µM.
`COc1cccc2[nH]c(C(=O)N3CC4(CCCC4)C[C@H]3C(=O)N[C@H](C#N)C[C@@H]3CCNC3=O)cc12` [Compound 401, (S)—N—((S)-1-cyano-2-((S)-2-oxopyrrolidin-3-yl)ethyl)-2-(4-methoxy-1H-indole-2-carbonyl)-2-azaspiro[4.4]nonane-3-carboxamide] was tested, and the EC50 [2] was < 22 µM.
For `COc1cccc2[nH]c(C(=O)N[C@@H](CC(C)C)C(=O)N[C@@H](C[C@@H]3CCNC3=O)C(C#N)NCc3ccccc3)cc12` (single isomer, unassigned) [507 (Isomer 1.1)], the EC50 [2] was < 22 µM.

From US11124497B1, “Inhibitors of cysteine proteases and methods of use thereof” (priority 2020, dated 2021)
